Data as given in patent US20070116736A1, “Local vascular delivery of PI3 kinase inhibitors alone or in combination with sirolimus to prevent restinosis following vascular injury” (priority 2005, published 2007).

Key:
[1] = drug concentration in liquid formulations by liquid chromatography / HPLC assay; type: physicochemical
[2] = system: human coronary artery smooth muscle cell; experiment: MTS cytotoxicity assay; type: cell-based; settings: concentrations up to 30,000.00 nanomolar
From the text: Typically, a control is utilized to determine baseline toxicity.

[3] = system: human coronary artery smooth muscle cells; settings: synchronized cells, two percent fetal bovine serum; for effect of addition of the agent on the percent inhibition of rapamycin: topotecan zero to three hundred nanomolar, etoposide zero to eight hundred nanomolar, Panzem zero to 100 micromolar
[4] = porcine drug elution PK study of dual drug eluting coating; type: in vivo; settings: after eight (8) days of implantation, pig coronary arteries; single layer coating of FIG. 83
From the text: Another critical parameter for the performance of the thrombus resistance of a device coated with cilostazol is the duration of the drug release from the coating. This is of particular significance in the two weeks after device implantation. In the porcine drug elution PK studies of the dual drug eluting coating, both cilostazol and sirolius were slowly released from the coating, resulting in a sustained drug release profile. The purpose of the porcine PK study is to assess the local pharmacokinetics of a drug eluting stent at a given implantation time. Normally three stents are implanted in three different coronary arteries in a pig for a given time point and then retrieved for total drug recovery analysis. The stents are retrieved at predetermined time points; namely, 1, 3 and 8 days. The stents are extracted and the total amount of drug remaining on the stents is determined by analysis utilizing HPLC (high performance liquid chromatography) for total drug amount. The difference between the original amount of drug on the stent and the amount of drug retrieved at a given time represents the amount of drug released in that period. The continuous release of drug into surrounding arterial tissue is what prevents the neointimal growth and restenosis in the coronary artery. A normal plot represents the percentage of total drug released (%, y-axis) vs. time of implantation (day, x-axis). […]

[5] = in vitro release of sirolimus and cilostazol from stent coating; type: physicochemical; settings: single layer coating of FIG. 83
[6] = system: human smooth muscle cells; experiment: Cladribine Example, PDGF-stimulated cell proliferation (cell count), smooth muscle cells; type: cell-based; settings: from IC50 values
Procedure: To assess the ability of cladribine to prevent cell proliferation, human smooth muscle or endothelial cells (Clonetics, Walkersville, Md.) were seeded at a density of 2000 cells/cm^2 (approximately 3600 cells/well) into each well of 12-well plates and cultured with 1.5 ml of growth medium containing five percent fetal calf serum (FCS). After twenty-four hours, the growth medium was changed and fresh medium containing 10 ng/ml platelet-derived growth factor AB (PDGF AB; LIFE Technologies), as well as various concentrations of cladribine (0.001-10,000 nM) were added with triplicate wells. Medium was replaced with fresh cladribine-containing medium after three days. On day six, cells were detached by trypsinization to yield a cell suspension, lightly centrifuged to pellet and then counted manually using a Neubauer hemocytometer system. Cell viability was assessed by trypan blue exclusion.

[7] = system: human coronary artery smooth muscle cells; experiment: anti-proliferative activity in non-synchronized cultured human coronary artery smooth muscle cells stimulated with two percent fetal bovine serum; type: cell-based; settings: for effect of addition of the agent on the anti-proliferative activity of rapamycin: mycophenolic acid zero to one thousand nanomolar, cladribine zero to nine hundred nanomolar
From the text: The multiple curves represent various concentrations of mycophenolic acid ranging from zero to one thousand nanomolar concentrations.
The multiple curves represent various concentrations of cladribine ranging from zero to nine hundred nanomolar concentrations.

[8] = system: cell viability; experiment: cell viability assay; type: cell-based
[9] = system: tumor cell lines; settings: tumor cell lines (Woo et al. 2002); cited from earlier work
[10] = system: human coronary artery smooth muscle cell; experiment: in vitro cell culture study, coronary artery smooth muscle cell proliferation (trichostatin A); type: cell-based
From the text: FIG. 51 is a graph of the inhibition of coronary artery smooth muscle cells by trichostatin A in a cell culture study.

Which “concentration of CCI-779 in the final solution (HPLC assay)” value ([1]; Vitamin E TPGS, water, ethanol less than two percent) does the source give for `CO[C@H]1C[C@@H]2CC[C@@H](C)[C@@](O)(O2)C(=O)C(=O)N2CCCC[C@H]2C(=O)O[C@H]([C@H](C)C[C@@H]2CC[C@@H](OC(=O)C(C)(CO)CO)[C@H](OC)C2)CC(=O)[C@H](C)/C=C(\C)[C@@H](O)[C@@H](OC)C(=O)[C@H](C)C[C@H](C)/C=C/C=C/C=C/1C` [CCI-779] here?
The value was 15000 µg/mL.

Which results are given for `COc1cc2c(cc1O)CC[C@@H]1[C@@H]2CC[C@]2(C)[C@@H](O)CC[C@@H]12` [Panzem®, 2-methoxyestradiol]?
human coronary artery smooth muscle cell survival (MTS assay) [2]: do not reduce human coronary artery smooth muscle cell survival; inhibition of human coronary artery smooth muscle cell proliferation in vitro [3]: extremely effective inhibitor; effect of addition of the agent on the percent inhibition of rapamycin [3]: increases the percent of inhibition of rapamycin alone

Which “drug remaining in the drug coating” value [4] does the source give for `O=C1CCc2cc(OCCCCc3nnnn3C3CCCCC3)ccc2N1` [cilostazol, 6[4-(1-cyclohexyl-1H-tetrazol-5-yl)-butoxy]-3,4-dihydro-2-(1H)-quinolinone] here?
The value was roughly 80%.

And the “in vitro release from coating” value [5]?
The value was roughly 35%.

For `Nc1nc(Cl)nc2c1ncn2[C@H]1C[C@H](O)[C@@H](CO)O1` [cladribine, 2-chlorodeoxyadenosine], which “potency as inhibitor of smooth muscle cells relative to endothelial cells” value [6] is on record?
Its value is “approximately twice”.

What about the “inhibition of human coronary artery smooth muscle cell proliferation” value [7] of the same compound?
Its value is “completely inhibits”.

And the “effect of addition of the agent on the anti-proliferative activity of rapamycin” value [7]?
The value was “increases the percent inhibition of rapamycin alone”.

With `COc1cc([C@@H]2c3cc4c(cc3[C@@H](O[C@@H]3O[C@@H]5CO[C@@H](C)O[C@H]5[C@H](O)[C@H]3O)[C@H]3COC(=O)[C@H]23)OCO4)cc(OC)c1O` [etoposide] as the compound, how does the “cytotoxicity in cell viability assay” value ([8]; at concentrations up to ten micromolar) read?
Its value is “non-cytotoxic”.

What about the “effect of addition of the agent on the percent inhibition of rapamycin” value [3] of the same compound?
Its value is “increases the percent inhibition of rapamycin alone”.

Which “effect of addition of the agent on the anti-proliferative activity of rapamycin” value [7] does the source give for `COc1c(C)c2c(c(O)c1C/C=C(\C)CCC(=O)O)C(=O)OC2` [mycophenolic acid] here?
Its value is “potentiates the anti-proliferative activity of rapamycin”.

With `CO[C@H]1C[C@@H]2CC[C@@H](C)[C@@](O)(O2)C(=O)C(=O)N2CCCC[C@H]2C(=O)O[C@H]([C@H](C)C[C@@H]2CC[C@@H](O)[C@H](OC)C2)CC(=O)[C@H](C)/C=C(\C)[C@@H](O)[C@@H](OC)C(=O)[C@H](C)C[C@H](C)/C=C/C=C/C=C/1C` [rapamycin] as the compound, how does the “drug remaining in the drug coating” value [4] read?
The value was roughly 80%.

And the “concentration in formulation relative to solubility of sirolimus in water” value ([1]; 4 mg/ml PEG 200 formulation)?
Its value is “four hundred to about one thousand”.

What does the source list for `CC[C@@]1(O)C(=O)OCc2c1cc1n(c2=O)Cc2cc3c(CN(C)C)c(O)ccc3nc2-1` [topotecan]?
cytotoxicity in cell viability assay ([8]; at concentrations up to one micromolar): non-cytotoxic; effect of addition of the agent on the percent inhibition of rapamycin [3]: increases the percent inhibition of rapamycin alone

With `CC(/C=C/C(=O)NO)=C\[C@@H](C)C(=O)c1ccc(N(C)C)cc1` [trichostatin A] as the compound, how does the “anti-proliferative IC50” value [9] read?
Its value is “low nM range”.

What about the IC50 ([10]; human coronary artery smooth muscle cell proliferation, read-out: anti-proliferative IC50) of the same compound?
The IC50 was roughly 6 nM.

And the “inhibition of human coronary artery smooth muscle cell proliferation” value ([10]; in vitro cell culture)?
The value was “completely inhibit”.
